Assay results: patent publication US6696447B2, “Hydroxyphenyl-piperazinyl-methyl-benzamide derivatives for the treatment of pain” (AstraZeneca AB, priority 2000, dated 2004)

Assays:
Format in all cases: biochemical
[1] = biological target: T1, human δ receptor (HDELTA) (Homo sapiens, UniProt P41143); test: GTP[γ]35S binding functional assay, HEK-293S membranes expressing cloned human opioid receptor (HDELTA)
T1 construct: expressed in transfected cells; host or cells: human 293S (HEK-293S) cells, geneticin-selected
T1 sequence (P41143 whole entry): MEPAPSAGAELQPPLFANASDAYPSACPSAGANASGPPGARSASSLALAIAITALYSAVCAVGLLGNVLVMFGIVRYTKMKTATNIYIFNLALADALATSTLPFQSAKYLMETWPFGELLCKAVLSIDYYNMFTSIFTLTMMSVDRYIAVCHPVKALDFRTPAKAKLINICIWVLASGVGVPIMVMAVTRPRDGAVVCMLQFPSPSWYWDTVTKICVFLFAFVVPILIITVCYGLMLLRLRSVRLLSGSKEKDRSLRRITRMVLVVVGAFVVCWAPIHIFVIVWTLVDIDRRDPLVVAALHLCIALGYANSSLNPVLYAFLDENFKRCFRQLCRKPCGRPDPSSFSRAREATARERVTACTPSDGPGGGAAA
Protocol: A. Human 293S cells expressing cloned human μ, δ, and κ receptors and neomycin resistance were grown in suspension at 37° C. and 5% CO2 in shaker flasks containing calcium-free DMEM10% FBS, 5% BCS, 0.1% Pluronic F-68, and 600 μg/ml geneticin.
Cells were pelleted and resuspended in lysis buffer (50 mM Tris, pH 7.0, 2.5 mM EDTA, with PMSF added just prior to use to 0.1 mM from a 0.1 M stock in ethanol), incubated on ice for 15 min, then homogenized with a polytron for 30 sec. The suspension was spun at 1000 g (max) for 10 min at 4° C. The supernatant was saved on ice and the pellets resuspended and spun as before. The supernatants from both spins were combined and spun at 46,000 g(max) for 30 min. The pellets were resuspended in cold Tris buffer (50 mM Tris/Ci, pH 7.0) and spun again. The final pellets were resuspended in membrane buffer (50 mM Tris, 0.32 M sucrose, pH 7.0). Aliquots (1 ml) in polypropylene tubes were frozen in dry ice/ethanol and stored at −70° C. until use. The protein concentrations were determined by a modified Lowry assay with sodium dodecyl sulfate.
(§1) The agonist activity of the compounds is measured by determining the degree to which the compounds receptor complex activates the binding of GTP to G-proteins to which the receptors are coupled. In the GTP binding assay, GTP[γ]^35S is combined with test compounds and membranes from HEK-293S cells expressing the cloned human opioid receptors or from homogenised rat and mouse brain. Agonists stimulate GTP[γ]^35 S binding in these membranes. The EC50 and Emax values of compounds are determined from dose-response curves. Right shifts of the dose response curve by the delta antagonist naltrindole are performed to verify that agonist activity is mediated through delta receptors.

[2] = biological target: T2, delta receptors, rat brain membranes (Rattus norvegicus, UniProt P33533); test: GTP[γ]35S binding functional assay, homogenised rat brain
T2 construct: from tissue; host or cells: rat brain homogenate
T2 sequence (P33533 whole entry): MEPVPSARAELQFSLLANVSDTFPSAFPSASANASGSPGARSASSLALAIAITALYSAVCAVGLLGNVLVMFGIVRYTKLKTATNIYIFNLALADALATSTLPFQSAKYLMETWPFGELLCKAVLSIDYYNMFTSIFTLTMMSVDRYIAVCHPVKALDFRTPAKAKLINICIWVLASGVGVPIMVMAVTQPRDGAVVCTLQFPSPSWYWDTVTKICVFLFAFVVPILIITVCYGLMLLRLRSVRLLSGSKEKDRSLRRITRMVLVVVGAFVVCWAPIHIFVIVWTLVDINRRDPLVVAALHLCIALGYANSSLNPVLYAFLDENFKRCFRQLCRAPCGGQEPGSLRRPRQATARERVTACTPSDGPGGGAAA
Protocol: (§2) B. Mouse and rat brains were weighed and rinsed in ice-cold PBS (containing 2.5 mM EDTA, pH 7.4). The brains were homogenized with a polytron for 15 sec (mouse) or 30 sec (rat) in ice-cold lysis buffer (50 mM Tris, pH 7.0, 2.5 mM EDTA, with phenylmethylsulfonyl fluoride added just prior use to […] from a 0.5M stock in DMSO:ethanol).
as §1

[3] = biological target: T3, delta receptors, mouse brain membranes (Mus musculus, UniProt P32300); test: GTP[γ]35S binding functional assay, homogenised mouse brain
T3 construct: from tissue; host or cells: mouse brain homogenate
T3 sequence (P32300 whole entry): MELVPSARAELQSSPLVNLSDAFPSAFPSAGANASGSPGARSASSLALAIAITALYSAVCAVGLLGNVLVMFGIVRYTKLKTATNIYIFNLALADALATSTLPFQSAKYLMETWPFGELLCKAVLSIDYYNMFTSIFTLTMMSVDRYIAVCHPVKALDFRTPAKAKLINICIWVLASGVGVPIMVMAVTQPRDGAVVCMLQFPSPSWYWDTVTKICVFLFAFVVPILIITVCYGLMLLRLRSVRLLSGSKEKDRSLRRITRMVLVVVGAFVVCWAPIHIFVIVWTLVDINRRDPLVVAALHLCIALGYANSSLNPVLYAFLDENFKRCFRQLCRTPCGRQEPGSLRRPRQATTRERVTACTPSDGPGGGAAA
Protocol: as §2, §1

SMILES	Emax [1] [%]	Emax [2] [%]	Emax [3] [%]
CCN(CC)C(=O)c1ccc(C(c2cccc(O)c2)N2CCN(Cc3ccsc3)CC2)cc1 (stereo not drawn) [Example 3, N,N-diethyl-4-{(3-hydroxyphenyl)[4-(3-thienylmethyl)-1-piperazinyl]methyl}benzamide]	114	128	122
CCN(CC)C(=O)c1ccc(C(c2cccc(O)c2)N2CCN(Cc3cccs3)CC2)cc1 (stereo not drawn) [Example 2, N,N-diethyl-4-{(3-hydroxyphenyl)[4-(2-thienylmethyl)-1-piperazinyl]methyl}benzamide]	105	120	118
CCN(CC)C(=O)c1ccc(C(c2cccc(O)c2)N2CCN(Cc3ccco3)CC2)cc1 (stereo not drawn) [Example 1, N,N-diethyl-4-[[4-(2-furylmethyl)-1-piperazinyl](3-hydroxyphenyl)methyl]benzamide]	94.8	130	113
